Measured values taken from US20070104644A1, “Inhibitor imaging agents” (priority 2003, published 2007).
Numbered stars: 1 amine (or outer) side, 2 acyl side, 3 side chain; on linkers, the order of the positions; unused ones are H or OH. Square brackets hold non-standard residues; d marks the D form. Peptide text beside a SMILES is read from it. * marks the point of attachment. Tyr(3-I) = N[C@@H](Cc1ccc(O)c(I)c1)C(=O)O; X2 = O=C(NO)C1(N(CCC(=O)[*:2])[*:1])CCCC1; X1 = O=S(=O)(c1ccc(Oc2ccc(F)cc2)cc1)*

Tests used:
[1] = system: Lewis lung carcinoma (LLC) tumour; assay: Biodistribution in LLC tumour model in vivo; design: species or system C57BL/6 mice
Description: 1×10^6 Lewis lung carcinoma (LLC) cells are injected subcutaneously into right inner thigh of C57BL/6 mice. Tumours were allowed to grow for 15 days prior to biodistribution being carried out.
Biodistribution studies were performed in the LLC tumour model.
Biodistribution was performed in the LLC tumour model of Example 23 with Compounds 46B and 48B.

[2] = system: ApoE −/− mice, carotid artery; assay: Biodistribution in ApoE ligation model of atherosclerosis (ligated and sham); type: in vivo
Excerpt: ApoE −/− mice are transgenic knock-out mice, which lack the ApoE gene, and are therefore unable to regulate their plasma cholesterol levels. As a consequence ApoE mice develop atherosclerotic lesions, a process which is accelerated with feeding of high fat diet. Further acceleration of lesion development can be achieved by ligating the carotid artery, resulting in advanced lesion formation within 4 weeks of surgery and high fat diet feeding.
Two controls have been used for these experiments: (1) ApoE sham animals in which the mice undergo the same surgical intervention but the sture is only passed beneath the carotid and then removed and, (2) C57BL/6 ligtaed animals which undergo the same surgical ligation and high fat feeding as the ApoE ligated mice. Literature reports have stated that these animals do have some level of tissue remodelling, but with lower active MMP levels [Ivan et al, Circulation, 105, 2686-2691 (2002)].

[3] = molecular target: T1, MMP-2 (Homo sapiens, UniProt P08253); assay: MMP-2 colorimetric assay kit (Biomol AK-408); type: biochemical
T1 sequence (P08253 110-660): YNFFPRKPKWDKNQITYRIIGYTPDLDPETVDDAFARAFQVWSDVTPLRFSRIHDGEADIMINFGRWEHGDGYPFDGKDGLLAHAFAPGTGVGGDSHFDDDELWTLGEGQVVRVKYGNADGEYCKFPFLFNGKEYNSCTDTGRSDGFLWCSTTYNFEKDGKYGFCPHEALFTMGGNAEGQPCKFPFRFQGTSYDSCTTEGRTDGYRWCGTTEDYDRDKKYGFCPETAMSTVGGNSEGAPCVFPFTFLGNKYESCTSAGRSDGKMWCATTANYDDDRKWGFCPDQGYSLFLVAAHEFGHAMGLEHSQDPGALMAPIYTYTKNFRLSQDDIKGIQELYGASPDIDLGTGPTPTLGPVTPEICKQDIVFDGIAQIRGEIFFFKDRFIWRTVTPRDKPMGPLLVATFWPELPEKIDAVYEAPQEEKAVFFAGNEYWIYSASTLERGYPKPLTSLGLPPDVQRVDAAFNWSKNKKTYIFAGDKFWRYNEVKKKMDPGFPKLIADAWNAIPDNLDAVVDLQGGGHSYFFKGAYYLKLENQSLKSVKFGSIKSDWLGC
Description: (§1) Compounds were screened using the following commercially available Biomol assay kits: • MMP-1 colorimetric assay kit—Catalogue number AK-404, • MMP-2 colorimetric assay kit—Catalogue number AK-408, • MMP-8 calorimetric assay kit—Catalogue number AK-414, • MMP-9 calorimetric assay kit—Catalogue number AK-410, • MMP-12 colorimetric assay kit—Catalogue number AK-402, Which are available from Affiniti Research Products Ltd. (Palatine House, Matford Court, Exeter, EX2 8NL, UK).
(§2) Inhibitors were provided in powdered form, and stored at 4° C. For each inhibitor a 1 mM stock solution in DMSO was prepared, dispensed into 20 μl aliquots and these aliquots stored at −20° C. The stock solution was diluted to give 8 inhibitor concentrations (recommended: 50 μM, 5 μM, 500 nM, 50 nM, 5 nM, 500 pM, 50 pM and 5 pM). Dilutions were made in the kit assay buffer. A five-fold dilution of the inhibitor stocks is made on addition to the assay wells, therefore final concentration range was from 10 μM to 1 pM.
(§3) Details are provided with the commercial kit, but can be summarised as follows: • Prepare test compound dilutions as above, • Add assay buffer to plate, • Add test compounds to plate • Prepare standard kit inhibitor NNGH (see kit for dilution factor) • Add NNGH to control inhibitor wells • Prepare MMP enzyme (see kit for dilution factor) • Add MMP to plate • Incubate plate at 37° C. for ˜15 min • Prepare thiopeptolide substrate (see kit for dilution factor) • Add substrate to plate • Count every 2 min for 1 hr, 37° C., 414 nm on a Labsystems iEMS plate reader (for MMP-1 count every 30 seconds for 20 minutes).

[4] = molecular target: MMP-9 (Homo sapiens, UniProt P14780); assay: MMP-9 colorimetric assay kit (Biomol AK-410); type: biochemical
MMP-9, sequence (P14780 94-707): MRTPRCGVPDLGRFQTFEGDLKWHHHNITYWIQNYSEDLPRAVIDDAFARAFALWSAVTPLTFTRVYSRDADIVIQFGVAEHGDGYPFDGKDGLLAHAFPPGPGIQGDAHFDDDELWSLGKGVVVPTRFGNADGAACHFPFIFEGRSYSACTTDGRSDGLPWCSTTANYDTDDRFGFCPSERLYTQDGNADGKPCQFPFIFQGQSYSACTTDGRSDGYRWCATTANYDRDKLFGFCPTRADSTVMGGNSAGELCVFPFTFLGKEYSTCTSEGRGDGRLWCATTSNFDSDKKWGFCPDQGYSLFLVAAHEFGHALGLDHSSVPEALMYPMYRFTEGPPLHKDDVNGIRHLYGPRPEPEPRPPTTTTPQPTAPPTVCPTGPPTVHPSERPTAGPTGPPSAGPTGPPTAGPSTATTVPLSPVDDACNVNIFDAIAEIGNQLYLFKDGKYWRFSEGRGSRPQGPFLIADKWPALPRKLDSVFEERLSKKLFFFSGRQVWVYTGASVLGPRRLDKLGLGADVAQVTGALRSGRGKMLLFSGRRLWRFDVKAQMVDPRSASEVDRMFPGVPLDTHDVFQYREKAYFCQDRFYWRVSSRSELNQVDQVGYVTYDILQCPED
Description: as §1, §2, §3

[5] = molecular target: MMP-12 (Homo sapiens, UniProt P39900); assay: MMP-12 colorimetric assay kit (Biomol AK-402); type: biochemical
MMP-12, sequence (P39900 106-470): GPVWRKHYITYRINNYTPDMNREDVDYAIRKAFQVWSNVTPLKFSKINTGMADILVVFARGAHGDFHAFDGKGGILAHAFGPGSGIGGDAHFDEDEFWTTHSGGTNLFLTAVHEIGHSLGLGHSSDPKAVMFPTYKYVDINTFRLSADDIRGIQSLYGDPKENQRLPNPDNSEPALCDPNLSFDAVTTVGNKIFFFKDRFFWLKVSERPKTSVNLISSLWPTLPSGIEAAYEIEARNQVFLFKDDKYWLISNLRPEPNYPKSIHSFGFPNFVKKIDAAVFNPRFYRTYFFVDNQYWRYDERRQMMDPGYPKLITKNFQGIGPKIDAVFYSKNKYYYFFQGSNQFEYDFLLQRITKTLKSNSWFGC
Description: as §1, §2, §3

[6] = molecular target: T2, MMP-1 (Homo sapiens, UniProt P03956); assay: MMP-1 colorimetric assay kit (Biomol AK-404); type: biochemical
T2 sequence (P03956 100-469): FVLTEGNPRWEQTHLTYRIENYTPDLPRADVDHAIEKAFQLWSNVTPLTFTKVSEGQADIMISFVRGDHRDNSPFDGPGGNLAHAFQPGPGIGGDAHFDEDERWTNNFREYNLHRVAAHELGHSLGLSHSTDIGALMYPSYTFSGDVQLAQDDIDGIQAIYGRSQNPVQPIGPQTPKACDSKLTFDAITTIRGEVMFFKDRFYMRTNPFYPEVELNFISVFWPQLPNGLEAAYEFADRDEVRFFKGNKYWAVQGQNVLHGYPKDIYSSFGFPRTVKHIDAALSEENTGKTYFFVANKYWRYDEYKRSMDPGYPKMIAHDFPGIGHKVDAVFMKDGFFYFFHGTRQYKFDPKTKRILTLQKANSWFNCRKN
Description: as §1, §2, §3

[7] = molecular target: MMP-8 (Homo sapiens, UniProt P22894); assay: MMP-8 colorimetric assay kit (Biomol AK-414); type: biochemical
MMP-8, sequence (P22894 101-467): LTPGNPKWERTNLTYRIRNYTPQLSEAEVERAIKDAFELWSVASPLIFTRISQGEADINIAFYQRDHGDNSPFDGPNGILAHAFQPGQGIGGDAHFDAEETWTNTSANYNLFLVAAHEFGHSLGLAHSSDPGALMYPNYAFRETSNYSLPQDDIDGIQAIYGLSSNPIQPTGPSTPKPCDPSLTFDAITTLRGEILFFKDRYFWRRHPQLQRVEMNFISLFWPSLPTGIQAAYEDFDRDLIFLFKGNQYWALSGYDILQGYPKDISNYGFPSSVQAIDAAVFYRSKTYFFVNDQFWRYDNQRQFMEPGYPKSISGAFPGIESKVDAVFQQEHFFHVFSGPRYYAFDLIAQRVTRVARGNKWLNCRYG
Description: as §1, §2, §3

[8] = ApoE Ligated, 5 min post injection
[9] = ApoE Ligated, 60 min post injection
[10] = ApoE Sham, 60 min post injection

For NC(=O)[C@H](CCCCNC(=O)CON=Cc1ccc([18F])cc1)NC(=O)CCOCCOCCOCCOCCOCCOCCOCCOCCOCCOCCOCCNC(=O)CCOCCOCCOCCOCCOCCOCCOCCOCCOCCOCCOCCNC(=O)CCN(C1(C(=O)NO)CCCC1)S(=O)(=O)c1ccc(Oc2ccc(F)cc2)cc1 [Compound 48B], the “% ID Urinary (urinary excretion), mean” value ([1]; 5 min post injection) was 0.24 % ID, the “% ID/g Tumour, mean” value ([1]; 5 min post injection) was 2.53 % ID/g and the “Tumour/Blood, mean” value ([1]; 5 min post injection) was 0.11. For the same compound, the “Tumour/Heart, mean” value ([1]; 5 min post injection) was 0.40, the “Tumour/Lung, mean” value ([1]; 5 min post injection) was 0.26 and the “Tumour/Muscle, mean” value ([1]; 5 min post injection) was 1.55. For the same compound, the “% ID Urinary (urinary excretion), mean” value ([1]; 30 min post injection) was 15.29 % ID, the “% ID/g Tumour, mean” value ([1]; 30 min post injection) was 2.33 % ID/g and the “Tumour/Blood, mean” value ([1]; 30 min post injection) was 0.24. For the same compound, the “Tumour/Heart, mean” value ([1]; 30 min post injection) was 0.84, the “Tumour/Lung, mean” value ([1]; 30 min post injection) was 0.47 and the “Tumour/Muscle, mean” value ([1]; 30 min post injection) was 2.92. The “% ID Urinary (urinary excretion), mean” value ([1]; 60 min post injection) was 56.89 % ID, the “% ID/g Tumour, mean” value ([1]; 60 min post injection) was 1.81 % ID/g and the “Tumour/Blood, mean” value ([1]; 60 min post injection) was 0.51. For the same compound, the “Tumour/Heart, mean” value ([1]; 60 min post injection) was 1.69, the “Tumour/Lung, mean” value ([1]; 60 min post injection) was 0.95 and the “Tumour/Muscle, mean” value ([1]; 60 min post injection) was 4.40. For the same compound, the “% ID Urinary (urinary excretion), mean” value ([1]; 120 min post injection) was 59.33 % ID, the “% ID/g Tumour, mean” value ([1]; 120 min post injection) was 1.62 % ID/g and the “Tumour/Blood, mean” value ([1]; 120 min post injection) was 0.41. For the same compound, the “Tumour/Heart, mean” value ([1]; 120 min post injection) was 1.52, the “Tumour/Lung, mean” value ([1]; 120 min post injection) was 0.77 and the “Tumour/Muscle, mean” value ([1]; 120 min post injection) was 3.55. The “% ID/G Carotid, mean” value [2, 8] was 12.01 % ID/G, the “Carotid/Blood, mean” value [2, 8] was 0.40 and the “Carotid/Heart, mean” value [2, 8] was 1.27. For the same compound, the “Carotid/Lung, mean” value [2, 8] was 0.75, the “% ID/G Carotid, mean” value [2, 9] was 10.34 % ID/G and the “Carotid/Blood, mean” value [2, 9] was 0.96. The “Carotid/Heart, mean” value [2, 9] was 2.71, the “Carotid/Lung, mean” value [2, 9] was 1.42 and the “% ID/G Carotid, mean” value [2, 10] was 2.37 % ID/G. For the same compound, the “Carotid/Blood, mean” value [2, 10] was 0.2, the “Carotid/Heart, mean” value [2, 10] was 0.81 and the “Carotid/Lung, mean” value [2, 10] was 0.25.
In the case of NC(=O)[C@H](Cc1ccc(O)c(I)c1)NC(=O)COCC(=O)NCCOCCOCCOCCNC(=O)[C@H](CCC(=O)O)NC(=O)[C@H](CCC(=O)O)NC(=O)[C@H](CCC(=O)O)NC(=O)[C@H](CCC(=O)O)NC(=O)[C@H](CCC(=O)O)NC(=O)CCN(C1(C(=O)NO)CCCC1)S(=O)(=O)c1ccc(Oc2ccc(F)cc2)cc1 [Compound 38], the Ki [3] is reported as 1.25 nM, the Ki [4] is reported as 0.99 nM and the Ki [5] is reported as 0.05 nM.
Compound NC(=O)[C@H](CCCCNC(=O)CON=Cc1ccc(F)cc1)NC(=O)CCOCCOCCOCCOCCOCCOCCOCCOCCOCCOCCOCCNC(=O)CCOCCOCCOCCOCCOCCOCCOCCOCCOCCOCCOCCNC(=O)CCN(C1(C(=O)NO)CCCC1)S(=O)(=O)c1ccc(Oc2ccc(F)cc2)cc1 [Compound 48] has a Ki [6] of 33.3 nM, a Ki [7] of 0.5 nM and a Ki [4] of 0.2 nM.
NC(=O)[C@H](Cc1ccc(O)c(I)c1)NC(=O)[C@H](CCC(=O)O)NC(=O)[C@H](CCC(=O)O)NC(=O)[C@H](CCC(=O)O)NC(=O)[C@H](CCC(=O)O)NC(=O)[C@H](CCC(=O)O)NC(=O)CCN(C1(C(=O)NO)CCCC1)S(=O)(=O)c1ccc(Oc2ccc(F)cc2)cc1 [Compound 21] (X1-[X2]EEEEE[Tyr(3-I)]-NH2) was tested, and the Ki [6] was 195 nM, the Ki [3] was 1.15 nM and the Ki [7] was 0.87 nM. The Ki [4] was 0.82 nM.
